Values quoted from earlier work, collected in US20100137442A2, “Sustained Release Particulate Oral Dosage Forms of (R)-Baclofen and Methods of Treatment” (XenoPort, Inc., priority 2008, published 2010).

What was measured:
[1] = dosed either orally or directly into the colon of a mammal
[2] = oral; 2 mg t.i.d equivalent to racemic baclofen 10 mg t.i.d.
[3] = animal models
[4] = oral baclofen

CC(C)C(=O)O[C@@H](OC(=O)NC[C@H](CC(=O)O)c1ccc(Cl)cc1)C(C)C [Compound (4), (3R)-4-{[(1S)-2-methyl-1-(2-methylpropanoyloxy)propoxy]carbonylamino}-3-(4-chlorophenyl)butanoic acid]
bioavailability as (R)-baclofen [1]: high bioavailability

NC[C@H](CC(=O)O)c1ccc(Cl)cc1 [(R)-baclofen, R-(−)-baclofen]
potency relative to orally administered racemic baclofen [2]: about 5 fold

NCC(CC(=O)O)c1ccc(Cl)cc1 (racemic) [Baclofen, (±)-4-Amino-3-(4-chlorophenyl)butanoic acid]
absorption following administration into the colon [3]: poorly absorbed | elimination half-life [4]: 3 to 4 h
